Experiment: Simulation experiment of in vitro transdermal drug delivery in pig skin (Franz diffusion cell)
Type: in vitro ADME
Conditions: 37° C.
Source text: Simulation experiment of in vitro transdermal drug delivery in pig skin:
(1) pig skin with a thickness of 300-500 μm and an area of 1.0 cm^2 was selected and placed between the Franz diffusion cell supply cell and the Franz diffusion cell receiving cell. An […] side of the pig skin was oriented toward the supply cell, and then the patch apparatus was placed in the supply cell and was attached to the epidermis of the pig skin. The receiving cell was filled with phosphate buffered saline to simulate blood circulation, and the temperature in the receiving cell was maintained at 37° C. to simulate human body temperature.
(2) Set the electric quantity: 0.1 mA, the conduction time is 24 hours as desired. Press a power switch of the patch apparatus.

[1] = this method/apparatus, quantity of electric charge 2.4 mA * hour (0.1 mA, 24 hours)
[2] = traditional patch, quantity of electric charge 0 mA * hour, 24 hours

In the case of `Cc1nccn1CC1CCc2c(c3ccccc3n2C)C1=O` (stereo not shown) [ondansetron], the “Administration dosage (μg/cm^2 skin area contacted by the drug formulation)” value [1] is reported as 53.2 μg/cm^2, the Administration speed [1] is reported as 1.8 μg/(cm^2 * h) and the “Administration dosage (μg/cm^2 skin area contacted by the drug formulation)” value [2] is reported as 1.2 μg/cm^2. For the same molecule, the Administration speed [2] was 0.1 μg/(cm^2 * h).
